The values below come from PMC6746272, “Towards discovery of novel scaffold with potent antiangiogenic activity; design, synthesis of pyridazine based compounds, impact of hinge interaction, and accessibility of their bioactive conformation on VEGFR-2 activities” (Journal of Enzyme Inhibition and Medicinal Chemistry, 2019).

For one data set, the system named is VEGFR3. Further details: method as in PMID 23123015, PMID 23305239. The note with it: read-out: inhibits VEGFR3; cited from earlier work.
For another data set, the system named is VEGFR2. Further details: method as in PMID 23123015, PMID 23305239. The conditions noted are these: read-out: inhibits VEGFR2; cited from earlier work.
The subject of another data set is VEGFR1. Further details: method as in PMID 23123015, PMID 23305239. The conditions noted are these: read-out: inhibits VEGFR1; cited from earlier work.
The test system of the next data set is PDGFRβ. Further details: method as in PMID 23123015, PMID 23305239. The note with it: read-out: inhibits PDGFRβ; cited from earlier work.
A further data set deals with PDGFRα. The arrangement: method as in PMID 23123015, PMID 23305239. The note with it: read-out: inhibits PDGFRα; cited from earlier work.
The test system of the next data set is NCI 56 cell line panel. The experiment in a line: NCI primary anticancer assay, mean over panel (SRB). The format is cell-based, human. The note with it: 10–5 M. The method, then:
The selected compounds were evaluated at primary anticancer assay against a panel of 56 cancer lines at concentration 10–5 M. The human tumour cell lines were derived from nine different cancer types: leukaemia, melanoma, lung, colon, CNS, ovarian, renal, prostate, and breast cancers.
A 48 h drug exposure protocol was used and sulforhodamine B (SRB) protein assay was applied to estimate the cell viability and growth. The mean percentages GI (GI%) of the tested compounds over the full panel of cell lines are illustrated in Figure 4.
The cytotoxicity assays were performed at NCI, Bethesda, United States (against 56 cell lines). […]
Experimental drugs were solubilised in dimethyl sulfoxide at 400-fold the desired final maximum test concentration and stored frozen prior to use. […] Bound stain was subsequently solubilised with 10 mM trizma base, and the absorbance was read on an automated plate reader at a wavelength of 515 nm. […] Using the seven absorbance measurements [time zero (Tz), control growth (C), and test growth in the presence of drug at the five concentration levels (Ti)], the percentage growth was calculated at each of the drug concentration levels. Percentage GI was calculated as: [(Ti – Tz)/(C – Tz)] × 100 for concentrations for which Ti ≥ Tz [(Ti – Tz)/Tz] × 100 for concentrations for which Ti < Tz.

The next data set concerns HUVEC cell line. The data set is described as follows: In vitro HUVEC anti-proliferative assay (alamar Blue). It is filed as cell-based, human. The conditions noted are these: for HUVEC proliferation (%): 72 h, Mean ± SD, n = 3. The method, then: Compounds 8c, 8f, 15, 18b, and 18c were selected to be tested for their ability to in vitro inhibit VEGF-induced HUVEC cell line proliferation, using doxorubicin as a control.
The assay was performed at single dose concentration of 10 µM, where HUVEC, human (Life Technologies # C-003-5C) served as the cells’ source, in Medium 200 (Life Technologies # M-200–500), with large vessel endothelial supplement (LVES) (Life Technologies # A14608-01) and Pen-strep (Hyclone # SV30010). Alamar Blue (Life Technologies # DAL1025) was used as the fluorescent reagent.
HUVEC cells were cultured in Medium 200 with 2% LVES and 1% Pen-strep. To perform the proliferation assay, HUVEC cells were seeded at 5000 cells/50 μl/well in a 96-well black clear bottom tissue culture plate. Cells were incubated at 37 °C and 5% CO2 overnight to allow them to recover and reattach. Next day cells were treated with test compounds for 72 h. After treatment, cell proliferation was measured by Fluorescent quantitation of alamar Blue reagent. The alamar Blue assay incorporates a fluorometric/colorimetric growth indicator based on detection of metabolic activity. Specifically, resazurin, the active ingredient in the alamar Blue reagent, is blue in colour and virtually non-fluorescent. Upon entering cells, resazurin is reduced to resorufin, a compound that is red in colour and highly fluorescent. Continued cell growth maintains a reduced environment, therefore increasing the overall fluorescence and colour of the media surrounding cells. […] To perform the alamar Blue assay, […] of alamar Blue reagent was added to each well and the plate was incubated at 37 °C for an additional 2 h. Fluorescence intensity was measured at an excitation of 530 nm and an emission of 590 nm using a BioTek SynergyTM 2 microplate reader.
Cell proliferation assays were performed in triplicate at each concentration. The fluorescent intensity data were analysed using the computer software, Graphpad Prism. In the absence of the compound, the fluorescent intensity (Ft) in each data set was defined as 100%. In the absence of cells, the fluorescent intensity (Fb) in each data set was defined as 0%. The percent cell in the presence of each compound was calculated according to the following equation: % Cell = (F – Fb)/(Ft – Fb), where F = the fluorescent intensity in the presence of the compound, Fb = the fluorescent intensity in the absence of cells, and Ft = the fluorescent intensity in the absence of the compound.
(The colour change of resazurin is a common sign of viable cells or microbes.)

The next data set deals with T1, VEGFR-2 (Homo sapiens, UniProt P35968).
T1 construct: purchased Millipore, United Kingdom
The data set is described as follows: VEGFR-2 kinase inhibition assay (Alpha Screen, phosphotyrosine antibody). The format is biochemical. The conditions noted are these: for inhibition at 10 µM: read-out: VEGFR-2% inhibition. As to the method: The kinase activity of VEGFR-2 was measured by use of a phosphotyrosine antibody with the
Alpha Screen system (PerkinElmer, United States) according to manufacturer’s instructions. Enzyme reactions were performed in 50 mM Tris–HCl pH 7.5, 5 mM MnCl2, 5 mM MgCl2, 0.01% Tween-20 and 2 mM DTT, containing 10 μM ATP, 0.1 μg/mL biotinylated poly-GluTyr (4:1), and 0.1 nM of VEGFR-2 (Millipore, United Kingdom). Prior to catalytic initiation with ATP, the tested compounds at final concentrations ranging from 0 to 100 μg/mL and enzyme were incubated for 5 min at room temperature. […] Plate was incubated in the dark overnight and then read by ELISA Reader (PerkinElmer, United States). Wells containing the substrate and the enzyme without compounds were used as reaction control. Wells containing biotinylated poly-GluTyr (4:1) and enzyme without ATP were used as basal control. Percent inhibition was calculated by the comparison of compounds treated to control incubations.

The mark [1] stands for this setting: 5 concentrations 1 nM - 10 µM, Mean ± SD, n = 3, read-out: VEGFR-2 IC50.
Setting [2] is: single concentration of 10 µM, Mean ± SD, n = 3.

Where two headings read alike, the source gives them in different places.

T1 sequence (P35968 20-1356): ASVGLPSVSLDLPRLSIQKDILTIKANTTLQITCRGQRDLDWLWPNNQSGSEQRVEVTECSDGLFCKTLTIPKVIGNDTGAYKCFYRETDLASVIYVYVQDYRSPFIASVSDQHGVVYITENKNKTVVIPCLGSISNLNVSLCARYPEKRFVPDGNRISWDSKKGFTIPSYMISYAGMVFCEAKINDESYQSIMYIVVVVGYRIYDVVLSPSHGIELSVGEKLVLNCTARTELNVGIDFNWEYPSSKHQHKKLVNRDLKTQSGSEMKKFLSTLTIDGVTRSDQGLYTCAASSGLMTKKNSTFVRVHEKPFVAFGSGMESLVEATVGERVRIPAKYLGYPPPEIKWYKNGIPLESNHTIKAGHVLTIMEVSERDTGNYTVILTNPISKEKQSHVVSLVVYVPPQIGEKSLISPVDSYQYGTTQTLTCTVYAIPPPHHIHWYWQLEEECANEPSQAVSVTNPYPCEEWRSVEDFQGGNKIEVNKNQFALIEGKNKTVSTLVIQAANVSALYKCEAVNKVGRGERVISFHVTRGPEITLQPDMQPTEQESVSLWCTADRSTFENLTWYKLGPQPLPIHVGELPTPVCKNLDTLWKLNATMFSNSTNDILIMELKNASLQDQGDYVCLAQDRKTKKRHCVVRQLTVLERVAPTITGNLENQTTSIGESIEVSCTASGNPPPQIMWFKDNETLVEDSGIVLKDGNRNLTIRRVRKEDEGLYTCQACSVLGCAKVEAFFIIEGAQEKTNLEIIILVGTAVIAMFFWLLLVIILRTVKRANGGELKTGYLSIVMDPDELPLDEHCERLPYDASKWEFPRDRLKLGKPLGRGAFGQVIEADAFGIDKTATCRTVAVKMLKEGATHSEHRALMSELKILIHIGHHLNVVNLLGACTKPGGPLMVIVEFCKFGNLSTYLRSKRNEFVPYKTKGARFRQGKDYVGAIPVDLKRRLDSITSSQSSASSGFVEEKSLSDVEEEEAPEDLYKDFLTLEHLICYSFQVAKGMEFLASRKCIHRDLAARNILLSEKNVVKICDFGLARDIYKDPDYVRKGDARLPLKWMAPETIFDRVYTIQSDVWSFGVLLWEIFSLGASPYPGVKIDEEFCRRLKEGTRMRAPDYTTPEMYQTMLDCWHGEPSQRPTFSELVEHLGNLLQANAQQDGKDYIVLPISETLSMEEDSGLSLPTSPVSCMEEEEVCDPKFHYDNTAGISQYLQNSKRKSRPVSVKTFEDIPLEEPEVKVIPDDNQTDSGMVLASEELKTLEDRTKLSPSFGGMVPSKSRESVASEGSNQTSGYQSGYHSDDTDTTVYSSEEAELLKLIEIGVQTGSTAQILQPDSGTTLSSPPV

For the compound `Cc1cc(C(=O)Nc2cc(Oc3ccc4nc(NC(=O)C5CC5)cn4n3)ccc2C)n(C)n1` [TAK-593], the IC50 was 0.0011 µM in the data set with VEGFR3; 0.00095 µM in the data set with VEGFR2; 0.0032 µM with VEGFR1; 0.013 µM with PDGFRβ; 0.0043 µM in the data set on PDGFRα.
For `O=C(Nc1ccc(Oc2ccc(=O)[nH]n2)cc1)Nc1ccc(Cl)c(C(F)(F)F)c1` [Compound 18b, 1–(4-Chloro-3-(trifluoromethyl)phenyl)-3–(4-((6-oxo-1,6-dihydropyridazin-3-yl)oxy)phenyl)urea], the “inhibitory activity against most of the test cell lines (in words)” value in the data set with NCI 56 cell line panel is “weak inhibitory activity”. Besides, the “anti-proliferative activity against HUVEC (in words)” value in the data set on HUVEC cell line (10 μM) is listed as “potent anti-proliferative activity”. Also, the “HUVEC proliferation (%)” value with HUVEC cell line (10 µM) is reported as 2.13 ± 0.425%. Besides, the IC50 on VEGFR-2 (setting [1]) is 0.0607 ± 3e-05 µM.
For “1-[4-Chloro-3-(trifluoromethyl)phenyl)-3–(3-(6-oxo-1,6-dihydropyridazin-3-yl)phenyl]urea [Compound 8e]”, the VEGFR-2% inhibition on VEGFR-2 (setting [2]) is 27.03 ± 3.29%.
For `O=C(Nc1ccc(-c2ccc(=O)[nH]n2)cc1)Nc1ccc(Cl)c(C(F)(F)F)c1` [Compound 8c], in the data set with HUVEC cell line (10 µM), the “HUVEC proliferation (%)” value came out at 14.75 ± 0.059%. On VEGFR-2 (setting [1]), the IC50 was 1.3 ± 0.14 µM.
Turning to “1-[4-((6-Chloropyridazin-3-yl)amino)phenyl)-3–(3,4-dichlorophenyl]urea [Compound 11d]”, the VEGFR-2% inhibition on VEGFR-2 (setting [2]) came to 11.93 ± 2.25%.
For orientation: inhibition means how much of the control response was suppressed. As for `CN[C@@H]1C[C@H]2O[C@@](C)([C@@H]1OC)n1c3ccccc3c3c4c(c5c6ccccc6n2c5c31)C(=O)NC4` [Strausporine, staurosporine, reference compound], the inhibition at 10 µM on VEGFR-2 is 90.5 ± 4.53%.
As a reminder, the melting point is the temperature of the solid-liquid transition. `O=C(Nc1ccc(Cl)c(Cl)c1)Nc1nnc2ccc(Cl)nn12` [Compound 3] had a melting point of 173 to 175 °C. In addition, the inhibition at 10 µM at VEGFR-2 (setting [2]) is 3.06 ± 0.45%.
For the compound “1-[4-Chloro-3-(trifluoromethyl)phenyl)-3–(6-morpholino-[1, 2, 4]triazolo[4,3-b]pyridazin-3-yl]urea [Compound 5b]”, the VEGFR-2% inhibition at VEGFR-2 (setting [2]) was determined as 7.07 ± 1.11%.
As for `COc1ccc(Nc2ccc(NC(=O)Nc3ccc(Cl)c(C(F)(F)F)c3)cc2)nn1` [Compound 15, 1–(4-Chloro-3-(trifluoromethyl)phenyl)-3–(4-((6-methoxypyridazin-3-yl)amino)phenyl) urea], in the data set with HUVEC cell line (10 µM), the “HUVEC proliferation (%)” value is on record as 64.50 ± 2.017%. In addition, the inhibition at 10 µM with HUVEC cell line (Homo sapiens, HUVEC, 10 µM, read-out: growth inhibition (GI) percent against HUVEC cell line) is 35.5%. Moreover, the IC50 was 1.4 ± 0.12 µM on VEGFR-2 (setting [1]) and 1.41 µM at VEGFR-2 (unit given as nm, read-out: VEGFR-2 IC50 (nm)).
On VEGFR-2 (setting [2]), “1-[3,4-Dichlorophenyl)-3–(6-morpholino-[1, 2, 4]triazolo[4,3-b]pyridazin-3-yl]urea [Compound 5a]” gave a VEGFR-2% inhibition of 5.07 ± 0.61%.
Take “1-[3-Methoxyphenyl)-3–(6-morpholino-[1, 2, 4]triazolo[4,3-b]pyridazin-3-yl]urea [Compound 5c]”: the VEGFR-2% inhibition at VEGFR-2 (setting [2]) was 13.10 ± 1.71%.
